What is called IC50 is the concentration at which inhibition is half-maximal. The low end stands for greater potency, the high end for weaker potency.

We go through 37 molecules from patent publication US8354407B2 (Boehringer Ingelheim International GmbH, priority 2006, dated 2013).

This assay deals with T1, full-length human PKCα enzyme (Homo sapiens, UniProt P17252).
T1 construct: full-length human PKCα enzyme; purchased Upstate Biotechnology
Description: Assessment of PKC-α Inhibitory Activity (MALDI-TOF kinase assay). The format is biochemical. As to conditions: full-length human PKCα 0.12 μg/ml; ATP 45 μM; neurogranin 28-43 peptide 22 μM; 30 minute incubation at 24° C.; MALDI-TOF MS readout. On the procedure: Measurement of PKCα enzyme activity is performed using full-length human PKCα enzyme (Upstate Biotechnology) at a final concentration of 0.12 μg/ml in a kinase assay buffer (0.09 mg/ml bovine serum albumin (BSA), 210 μM ethylenediaminetetraacetic acid (EDTA), 360 μM CaCl2, 1 mM Tris-HCl, pH=7.5, 0.5 mM MgCl2, 0.015 mg/ml phosphatidylserine and 0.015 mg/ml diacylglycerol). The reaction is initiated by addition of adenosine triphosphate (ATP; final concentration 45 μM) and a peptide substrate consisting of amino acids 28-43 (Ala-Ala-Lys-Ile-Gln-Ala-Ser-Phe-Arg-Gly-His-Met-Ala-Arg-Lys-Lys) of neurogranin (Promega; final concentration 22 μM). After a 30 minute incubation at 24° C. the reaction is terminated by adding 5 μL of the reaction mixture into 50 μL of MALDI matrix solution (5 mg/ml α-cyano-4-hydroxycinnamic acid in 50% Acetonitrile/H2O, 0.1% TFA, 5 mM ammonium phosphate). Two microliters of the stopped reaction mixture is transferred onto a MALDI-TOF mass spectrometer target plate.
All spectra are collected on an Applied Biosystems 4700 Proteomics Analyzer MALDI-TOF MS equipped with a Nd:YAG laser (355 nm, 3 ns pulse width, 200 Hz repetition rate) in negative ion reflector mode. The system is operated with 4700 Explorer software, version 3.0. Automated acquisition parameters are adjusted to capture and average only those individual spectra within defined success criteria. Specifically, signal intensities for the substrate peptide are set to a minimum threshold of 3000 counts and a maximum intensity of 65,000 counts. This ensured that neither null spectra nor saturated spectra are averaged into the final readout. Between 1000 and 1500 laser shots are averaged for each sample. Data are collected in triplicate from 3 successive days to capture the maximum variability related to preparation of enzyme reaction, transfer of samples to MALDI target plates, data collection, and data extraction.
The isotope cluster areas for each peptide substrate and product peaks are extracted into a Microsoft Excel worksheet from the 10×10 array of spectral data simultaneously using the automated analysis function provided within the 4700 Explore software. The isotope cluster area is defined by the software algorithm based on the molecular weight and the general elemental composition of the peptides. The percent conversion (% C) of substrate to product is calculated as the cluster area of the product (P) divided by the sum of the cluster areas of the substrate (S) and the product multiplied by 100 as represented by the following equation: […]
For dose-dependent inhibition studies, the inhibition is plotted as a % Maximal Activity (% MA). Equation one is a measure of the ratio of product to substrate then solving for the % C. However, to measure inhibition of the enzyme activity, one must measure the degree to which that activity (% C) is curtailed. Thus the dose-dependant inhibition data is plotted as % MA where the maximal activity is the % C measured in control reactions with no inhibitor as represented by the following equation: […]
As for `CN1CCN(CCCNc2ccnc(Nc3cccc(Cl)c3)n2)CC1` [N^2-(3-Chlorophenyl)-N^4-[3-(4-methylpiperazin-1-yl)-propyl]-pyrimidine-2,4-diamine], 0.005 µM corresponded to half-maximal inhibition (IC50).

With `CN1CCCC(CNc2ccnc(Nc3cccc(Cl)c3)n2)C1` (stereo not shown) [N^2-(3-Chlorophenyl)-N^4-(1-methylpiperidin-3-ylmethyl)-pyrimidine-2,4-diamine], half-maximal inhibition (IC50) required 0.004 µM. As for `c1ccc(-c2cccc(Nc3nccc(NCCCN4CCOCC4)n3)c2)cc1` [N^2-Biphenyl-3-yl-N^4-(3-morpholin-4-yl-propyl)-pyrimidine-2,4-diamine], the midpoint of inhibition, the IC50, lay at 0.003 µM. The molecule `c1cc(Nc2nccc(NCCCN3CCOCC3)n2)cc(-c2cccc3[nH]ccc23)c1` [N^2-[3-(1H-Indol-4-yl)-phenyl]-N^4-(3-morpholin-4-yl-propyl)-pyrimidine-2,4-diamine] registered a half-maximal inhibitory concentration (IC50) of 0.012 µM.

`c1cncc(-c2cccc(Nc3nccc(NCCCN4CCOCC4)n3)c2)c1` [N^2-[3-(Pyridin-3-yl)-phenyl]-N^4-(3-morpholin-4-yl-propyl)-pyrimidine-2,4-diamine] showed a half-maximal inhibitory concentration (IC50) of 0.028 µM. As to `O=[N+]([O-])c1cccc(Nc2nccc(NCCCN3CCCC3)n2)c1` [N^2-(3-Nitrophenyl)-N^4-(3-pyrrolidin-1-yl-propyl)-pyrimidine-2,4-diamine], half-maximal inhibition (IC50) was put at 0.002 µM. As to `COc1cccc(Nc2nccc(NCCCN3CCCC3)n2)c1` [N^2-[3-Methoxyphenyl]-N^4-(3-pyrrolidin-1-yl-propyl)-pyrimidine-2,4-diamine], the concentration for half-maximal inhibition (IC50) amounted to 0.016 µM. As to “N^2-(3-Nitro-biphenyl-3-yl)-N^4-(3-morpholin-4-yl-propyl)-pyrimidine-2,4-diamine”, the half-inhibitory concentration (IC50) turned out to be 0.182 µM.

The molecule `Clc1cccc(Nc2nccc(NCC3CCNCC3)n2)c1` [N^2-(3-Chloro-phenyl)-N^4-piperidin-4-ylmethyl-pyrimidine-2,4-diamine] had an IC50 of 0.037 µM. In turn, `NS(=O)(=O)c1cccc(Nc2nccc(NCCCN3CCOCC3)n2)c1` [3-[4-(3-Morpholin-4-yl-propylamino)-pyrimidin-2-ylamino]-benzenesulfonamide] returned an IC50 of 0.014 µM. `CN1CC[C@@H](CNc2ccnc(Nc3cccc(Cl)c3)n2)C1` [N^2-(3-Chlorophenyl)-N^4-{[(3S)-1-methylpyrrolidin-3-yl]methyl}pyrimidine-2,4-diamine] registered an IC50 of 0.013 µM. `O=C1CCCN1CCCNc1ccnc(Nc2cccc(Cl)c2)n1` [1-{3-[2-(3-Chlorophenylamino)-pyrimidin-4-ylamino]-propyl}-pyrrolidin-2-one]: the half-maximal inhibitory concentration (IC50) was found to be 0.71 µM.

For `FC(F)(F)c1cc(Nc2nccc(NCCCN3CCOCC3)n2)cc(C(F)(F)F)c1` [N^2-(3,5-Bis-trifluoromethyl-phenyl)-N^4-(3-morpholin-4-yl-propyl)-pyrimidine-2,4-diamine], the midpoint of inhibition, the IC50, lay at 0.021 µM. For the molecule `Fc1cccc(Nc2nccc(NCCCN3CCOCC3)n2)c1` [N^2-(3-Fluorophenyl)-N^4-(3-morpholin-4-yl-propyl)-pyrimidine-2,4-diamine], inhibition was half-maximal at 0.064 µM (IC50). Molecule `OCc1cccc(Nc2nccc(NCCCN3CCOCC3)n2)c1` [{3-[4-(3-Morpholin-4-yl-propylamino)-pyrimidin-2-ylamino]-phenyl}-methanol] came in with an IC50 of 0.465 µM. Turning to `CN1CC[C@H](CNc2ccnc(Nc3cccc(Cl)c3)n2)C1` [N^2-(3-Chlorophenyl)-N^4—[(3R)-1-methylpyrrolidin-3-ylmethyl]-pyrimidine-2,4-diamine], the IC50 was determined as 0.007 µM. For `Clc1cccc(Nc2nccc(NCC3CCCNC3)n2)c1` (stereo not shown) [N^2-(3-Chlorophenyl)-N^4-piperidin-3-ylmethyl-pyrimidine-2,4-diamine], the IC50 was 0.025 µM. For `CC(C)c1cccc(Nc2nccc(NCCCN3CCOCC3)n2)c1` [N^2-(3-Isopropylphenyl)-N^4-(3-morpholin-4-yl-propyl)-pyrimidine-2,4-diamine], the IC50 came out at 0.08 µM.

`O=C(Nc1cccc(Nc2nccc(NCCCN3CCOCC3)n2)c1)c1ccccc1` [N-{3-[4-(3-Morpholin-4-yl-propylamino)-pyrimidin-2-ylamino]-phenyl}-benzamide]: half-maximal inhibition (IC50) required 0.025 µM.

In turn, `CN1C2CCC1CC(Nc1ccnc(Nc3cccc(Cl)c3)n1)C2` (stereo not shown) [N^2-(3-Chlorophenyl)-N^4-(8-methyl-8-azabicyclo[3.2.1]oct-3-yl)-pyrimidine-2,4-diamine] registered an IC50 of 0.004 µM.

Regarding `O=C(Nc1cccc(Nc2nccc(NCCCN3CCOCC3)n2)c1)c1cccnc1` [N-{3-[4-(3-Morpholin-4-yl-propylamino)-pyrimidin-2-ylamino]-phenyl}-nicotinamide], it took 0.112 µM to reach half-maximal inhibition (IC50). The figure for `Clc1cccc(Nc2nccc(NCCCN3CCOCC3)n2)c1` [N^2-(3-Chlorophenyl)-N^4-(3-morpholin-4-yl-propyl)-pyrimidine-2,4-diamine] is 0.002 µM; for `c1cc(Cc2cc3ccccc3[nH]2)cc(Nc2nccc(NCCCN3CCOCC3)n2)c1` [N^2-[3-(1H-Indol-2-ylmethyl)-phenyl]-N^4-(3-morpholin-4-yl-propyl)-pyrimidine-2,4-diamine] it is 0.018 µM. Take `Clc1cccc(Nc2nccc(NCC3CNCCO3)n2)c1` (stereo not shown) [N^2-(3-Chlorophenyl)-N^4-morpholin-2-ylmethyl-pyrimidine-2,4-diamine]: it took 0.023 µM to reach half-maximal inhibition (IC50).

`CN(C)c1cccc(Nc2nccc(NCCCN3CCOCC3)n2)c1` [N^2-[3-(N,N-dimethylamino)-phenyl]-N^4-(3-morpholin-4-yl-propyl)-pyrimidine-2,4-diamine]: the concentration for half-maximal inhibition (IC50) was found to be 0.053 µM. `c1ccc(Oc2cccc(Nc3nccc(NCCCN4CCOCC4)n3)c2)cc1` [N^2-(3-Phenoxyphenyl)-N^4-(3-morpholin-4-yl-propyl)-pyrimidine-2,4-diamine]: inhibition was half-maximal at 0.05 µM (IC50).

`CN1CCC(CNc2ccnc(Nc3cccc(Cl)c3)n2)CC1` [N^2-(3-Chlorophenyl)-N^4-(1-methylpiperidin-4-yl-methyl)-pyrimidine-2,4-diamine] came in with an IC50 of 0.03 µM. Regarding `O=C(Nc1cccc(Cl)c1)c1cccc(Nc2nccc(NCCCN3CCCC3)n2)c1` [N-(3-Chlorophenyl)-3-[4-(3-pyrrolidin-1-yl-propylamino)-pyrimidin-2-ylamino]-benzamide], 0.012 µM corresponded to half-maximal inhibition (IC50). Molecule `O=S(=O)(NCc1cccnc1)c1cccc(Nc2nccc(NCCCN3CCOCC3)n2)c1` [3-[4-(3-Morpholin-4-yl-propylamino)-pyrimidin-2-ylamino]-N-(pyridin-3-ylmethyl)-benzenesulfonamide] showed an IC50 of 0.052 µM. Consider `Brc1cccc(Nc2nccc(NCCCN3CCOCC3)n2)c1` [N^2-(3-Bromophenyl)-N^4-(3-morpholin-4-yl-propyl)-pyrimidine-2,4-diamine], for which the midpoint of inhibition, the IC50, lay at 0.001 µM. Molecule `O=[N+]([O-])c1cccc(Nc2nccc(NCCCN3CCOCC3)n2)c1` [N^2-(3-Nitrophenyl)-N^4-(3-morpholin-4-yl-propyl)-pyrimidine-2,4-diamine] displayed an IC50 of 0.001 µM.

For the molecule `CC(C)NC(=O)c1cccc(Nc2nccc(NCCCN3CCCC3)n2)c1` [N-Isopropyl-3-[4-(3-pyrrolidin-1-yl-propylamino)-pyrimidin-2-ylamino]-benzamide], the IC50 was determined as 0.344 µM. `Clc1cccc(Nc2nccc(NCCCN3CCCC3)n2)c1` [N^2-(3-Chlorophenyl)-N^4-(3-pyrrolidin-1-yl-propyl)-pyrimidine-2,4-diamine] returned an IC50 of 0.003 µM.

Turning to `CN1CCCC1CCNc1ccnc(Nc2cccc(Cl)c2)n1` (stereo not shown) [N^2-(3-Chlorophenyl)-N^4-[2-(1-methylpyrrolidin-2-yl)-ethyl]-pyrimidine-2,4-diamine], the IC50 worked out at 0.0004 µM. Molecule `c1cc(Nc2nccc(NCCCN3CCOCC3)n2)cc(-c2nc3ccccc3s2)c1` [N^2-[3-(Benzo[d]thiazol-2-yl)-phenyl]-N^4-(3-morpholin-4-yl-propyl)-pyrimidine-2,4-diamine] gave a half-inhibitory concentration (IC50) of 0.04 µM. As to `CN1CCN(S(=O)(=O)c2cccc(Nc3nccc(NCCCN4CCOCC4)n3)c2)CC1` [N^2-[3-(4-Methyl-piperazine-1-sulfonyl)phenyl]-N^4-(3-morpholin-4-ylpropyl)-pyrimidine-2,4-diamine], the half-inhibitory concentration (IC50) was 0.083 µM. Molecule `O=S(=O)(Nc1ccccc1)c1cccc(Nc2nccc(NCCCN3CCOCC3)n2)c1` came in with an IC50 of 0.023 µM.
